Measured values published in BigSolDB 2.1.

CC(N)=S
Settings	solubility (mole fraction)
in 2-butanone, 272.85 K	0.137
in 2-butanone, 279.35 K	0.157
in 2-butanone, 282.55 K	0.167
in 2-butanone, 287.95 K	0.185
in 2-butanone, 293.35 K	0.205
in 2-butanone, 297.85 K	0.223
in 2-butanone, 303.05 K	0.244
in 2-butanone, 308.55 K	0.268
in 2-butanone, 313.15 K	0.289
in 2-butanone, 318.05 K	0.312
in 2-butanone, 323.95 K	0.343
in 2-pentanone, 272.85 K	0.111
in 2-pentanone, 279.35 K	0.127
in 2-pentanone, 282.55 K	0.136
in 2-pentanone, 287.95 K	0.152
in 2-pentanone, 293.35 K	0.169
in 2-pentanone, 297.85 K	0.183
in 2-pentanone, 303.05 K	0.202
in 2-pentanone, 308.55 K	0.222
in 2-pentanone, 313.15 K	0.24
in 2-pentanone, 318.05 K	0.26
in 2-pentanone, 323.95 K	0.286
in acetone, 272.85 K	0.144
in acetone, 279.35 K	0.165
in acetone, 282.55 K	0.176
in acetone, 287.95 K	0.195
in acetone, 293.35 K	0.216
in acetone, 297.85 K	0.234
in acetone, 303.05 K	0.257
in acetone, 308.55 K	0.282
in acetone, 313.15 K	0.304
in acetone, 318.05 K	0.329
in acetone, 323.95 K	0.36
in acetonitrile, 272.85 K	0.0478
in acetonitrile, 279.35 K	0.061
in acetonitrile, 282.55 K	0.0685
in acetonitrile, 287.95 K	0.0828
in acetonitrile, 293.35 K	0.0993
in acetonitrile, 297.85 K	0.115
in acetonitrile, 303.05 K	0.136
in acetonitrile, 308.55 K	0.16
in acetonitrile, 313.15 K	0.184
in acetonitrile, 318.05 K	0.211
in acetonitrile, 323.95 K	0.249
in ethanol, 273.15 K	0.064
in ethanol, 277.95 K	0.0752
in ethanol, 283.45 K	0.0901
in ethanol, 288.25 K	0.105
in ethanol, 293.25 K	0.122
in ethanol, 298.15 K	0.141
in ethanol, 302.35 K	0.159
in ethanol, 308.05 K	0.186
in ethanol, 313.35 K	0.214
in ethanol, 318.25 K	0.243
in ethanol, 323.15 K	0.274
in ethyl acetate, 272.85 K	0.0646
in ethyl acetate, 279.35 K	0.0773
in ethyl acetate, 282.55 K	0.0843
in ethyl acetate, 287.95 K	0.0969
in ethyl acetate, 293.35 K	0.111
in ethyl acetate, 297.85 K	0.124
in ethyl acetate, 303.05 K	0.14
in ethyl acetate, 308.55 K	0.158
in ethyl acetate, 313.15 K	0.175
in ethyl acetate, 318.05 K	0.194
in ethyl acetate, 323.95 K	0.219
in ethyl formate, 272.85 K	0.0427
in ethyl formate, 279.35 K	0.0536
in ethyl formate, 282.55 K	0.0596
in ethyl formate, 287.95 K	0.0711
in ethyl formate, 293.35 K	0.0843
in ethyl formate, 297.85 K	0.0965
in ethyl formate, 303.05 K	0.113
in ethyl formate, 308.55 K	0.131
in ethyl formate, 313.15 K	0.149
in ethyl formate, 318.05 K	0.17
in ethyl formate, 323.95 K	0.198
in isobutanol, 273.15 K	0.0323
in isobutanol, 277.95 K	0.0401
in isobutanol, 283.45 K	0.0508
in isobutanol, 288.25 K	0.0621
in isobutanol, 293.25 K	0.0761
in isobutanol, 298.15 K	0.0922
in isobutanol, 302.35 K	0.108
in isobutanol, 308.05 K	0.133
in isobutanol, 313.35 K	0.16
in isobutanol, 318.25 K	0.189
in isobutanol, 323.15 K	0.223
in isopentanol, 273.15 K	0.0333
in isopentanol, 277.95 K	0.0415
in isopentanol, 283.45 K	0.0528
in isopentanol, 288.25 K	0.0648
in isopentanol, 293.25 K	0.0796
in isopentanol, 298.15 K	0.0968
in isopentanol, 302.35 K	0.114
in isopentanol, 308.05 K	0.141
in isopentanol, 313.35 K	0.171
in isopentanol, 318.25 K	0.203
in isopentanol, 323.15 K	0.239
in isopropanol, 273.15 K	0.0439
in isopropanol, 277.95 K	0.0532
in isopropanol, 283.45 K	0.066
in isopropanol, 288.25 K	0.0792
in isopropanol, 293.25 K	0.0949
in isopropanol, 298.15 K	0.113
in isopropanol, 302.35 K	0.13
in isopropanol, 308.05 K	0.158
in isopropanol, 313.35 K	0.186
in isopropanol, 318.25 K	0.216
in isopropanol, 323.15 K	0.251
in methanol, 273.15 K	0.0894
in methanol, 277.95 K	0.104
in methanol, 283.45 K	0.123
in methanol, 288.25 K	0.141
in methanol, 293.25 K	0.163
in methanol, 298.15 K	0.186
in methanol, 302.35 K	0.208
in methanol, 308.05 K	0.241
in methanol, 313.35 K	0.275
in methanol, 318.25 K	0.31
in methanol, 323.15 K	0.348
in methyl acetate, 272.85 K	0.0603
in methyl acetate, 279.35 K	0.074
in methyl acetate, 282.55 K	0.0815
in methyl acetate, 287.95 K	0.0957
in methyl acetate, 293.35 K	0.112
in methyl acetate, 297.85 K	0.126
in methyl acetate, 303.05 K	0.145
in methyl acetate, 308.55 K	0.167
in methyl acetate, 313.15 K	0.187
in methyl acetate, 318.05 K	0.211
in methyl acetate, 323.95 K	0.242
in n-butanol, 273.15 K	0.0417
in n-butanol, 277.95 K	0.0524
in n-butanol, 283.45 K	0.0674
in n-butanol, 288.25 K	0.0833
in n-butanol, 293.25 K	0.103
in n-butanol, 298.15 K	0.126
in n-butanol, 302.35 K	0.149
in n-butanol, 308.05 K	0.186
in n-butanol, 313.35 K	0.227
in n-butanol, 318.25 K	0.271
in n-butanol, 323.15 K	0.321
in n-pentanol, 273.15 K	0.0507
in n-pentanol, 277.95 K	0.0598
in n-pentanol, 283.45 K	0.0716
in n-pentanol, 288.25 K	0.0835
in n-pentanol, 293.25 K	0.0975
in n-pentanol, 298.15 K	0.113
in n-pentanol, 302.35 K	0.127
in n-pentanol, 308.05 K	0.149
in n-pentanol, 313.35 K	0.172
in n-pentanol, 318.25 K	0.196
in n-pentanol, 323.15 K	0.222
in n-propanol, 273.15 K	0.0503
in n-propanol, 277.95 K	0.0608
in n-propanol, 283.45 K	0.0748
in n-propanol, 288.25 K	0.0891
in n-propanol, 293.25 K	0.106
in n-propanol, 298.15 K	0.126
in n-propanol, 302.35 K	0.144
in n-propanol, 308.05 K	0.173
in n-propanol, 313.35 K	0.203
in n-propanol, 318.25 K	0.236
in n-propanol, 323.15 K	0.272
